Source: publication PMC4700476, “Differential regulation by AMP and ADP of AMPK complexes containing different γ subunit isoforms” (Biochemical Journal, 2016)

Tests used:
[1] = system: γ1-containing AMPK complexes in HEK-293 cells expressing FLAG–γ1; assay: Activation of AMPK complexes in intact cells (anti-FLAG IP kinase assay and pThr172 blot); format: cell-based, human; details: γ1 complex; 60 min; phenformin 10 mM, berberine 300 μM, A23187 10 μM, A-769662 300 μM
Protocol: (§1) HEK-293 cells expressing tetracycline-inducible human γ1, γ2 and γ3 with N-terminal FLAG tags were obtained by inserting the appropriate DNA into cells carrying a Flp recombinase target site with co-transfection of DNA encoding Flp recombinase; expression of the γ subunits was induced by adding tetracycline (1 μg·ml^−1) to the medium for 48 h.
(§2) HEK-293 cells were grown in Dulbecco's modified Eagle's medium (DMEM) containing 4.5 g/l glucose, 10% (v/v) FBS, 100 units/ml penicillin, 100 μg/ml streptomycin, 200 μg/ml hygromycin and 15 μg/ml blasticidin. The medium was replaced with medium containing 1 g/l glucose, 16 h before the treatments described in the text.
(§3) Cell lysates were made using the rapid lysis procedure. Lysates containing stably expressed recombinant FLAG-tagged γ subunits were immunoprecipitated from HEK-293 cell lysates (90 μg of lysate protein) by incubation at 4°C for 2 h on a roller mixer with 7.5 μl of EZview Red anti-FLAG M2 affinity gel (Sigma–Aldrich). After extensive washing, the immunoprecipitates (IPs) were assayed for AMPK activity on an orbital shaker as described previously except that the AMARA peptide substrate was used in all assays apart from those shown in Figures 3 and 4. The SAMS peptide was used in the latter because, for reasons that remain unclear, the degree of allosteric activation is always greater using this substrate.
(§4) Figure 2 Activation of FLAG–γ1,–γ2 or–γ3 by various AMPK activators Cells expressing FLAG–γ1,–γ2 or–γ3 were incubated with DMSO (vehicle), phenformin (10 mM), berberine (300 μM), A23187 (10 μM) or A-769662 (300 μM) for 60 min, AMPK complexes were immunoprecipitated using anti-FLAG antibodies and were analysed by kinase assays (upper panel) and Western blotting (lower panel). […] The absolute activities (nmol/min/mg of lysate protein) in the DMSO controls were: 0.16±0.01 (γ1), 0.24±0.01 (γ2) and 0.053±0.001 (γ3; means ± S.E.M., n=3).

[2] = system: γ2-containing AMPK complexes in HEK-293 cells expressing FLAG–γ2; assay: as above; format: cell-based, human; details: γ2 complex; 60 min; phenformin 10 mM, berberine 300 μM, A23187 10 μM, A-769662 300 μM
Protocol: as §1, §2, §3, §4

[3] = system: γ3-containing AMPK complexes in HEK-293 cells expressing FLAG–γ3; assay: as above; format: cell-based, human; details: for AMPK activation and Thr172 phosphorylation in intact cells: γ3 complex, 60 min, phenformin 10 mM, berberine 300 μM, A23187 10 μM, A-769662 300 μM
Protocol: as §1, §2, §3, §4

AMPK = system: AMPK; parameters: method as in PMID 24746562; details: AMPK not phosphorylated on Thr172; cited from earlier work
rat hepatocytes = system: rat hepatocytes; parameters: method as in PMID 17855357; details: cited from earlier work
[4] = system: γ1-containing AMPK complexes in mouse skeletal muscle; parameters: method as in PMID 25695398; details: cited from earlier work
[5] = system: γ3-containing AMPK complexes in mouse skeletal muscle; parameters: method as in PMID 25695398; details: cited from earlier work

| SMILES | AMPK activation and Thr172 phosphorylation in intact cells [1] | AMPK activation and Thr172 phosphorylation in intact cells [2] | AMPK activation and Thr172 phosphorylation in intact cells [3] | further results |
| --- | --- | --- | --- | --- |
| CNc1ccc2oc(C[C@H]3O[C@@]4(CC[C@H]3C)O[C@H]([C@H](C)C(=O)c3ccc[nH]3)[C@H](C)C[C@H]4C)nc2c1C(=O)O [A23187] | activated | activated | activated | – |
| N#Cc1c(O)c2c(-c3ccc(-c4ccccc4O)cc3)csc2[nH]c1=O [A-769662] | did not significantly activate | only modest increases | only modest increases | allosteric activation of AMPK (AMPK): > 60 fold; increases in Thr172 phosphorylation (rat hepatocytes): negligible; phosphorylation of acetyl-CoA carboxylase (ACC) (rat hepatocytes): marked phosphorylation |
| NC(=O)c1ncn([C@@H]2O[C@H](CO)[C@@H](O)[C@H]2O)c1N [AICAR, 5-aminoimidazole-4-carboxamide riboside] | – | – | – | activation of γ1-containing complexes [4]: activated both isoforms; activation of γ3-containing complexes [5]: activated both isoforms |
| O=C(O)c1ccc2c3c1cccc3c(=O)n1c3ccccc3nc21 [STO-609] | – | – | – | effect on activation of γ3 complex by A23187 ([3]; results not shown): completely blocked |
| COc1ccc2cc3[n+](cc2c1OC)CCc1cc2c(cc1-3)OCO2 [berberine, Berberine chloride] | activated | activated | activated | – |
| [H]/N=C(/N)N/C(=N/[H])NCCc1ccccc1 [phenformin] | activated | activated | activated | – |
